± gives the expanded uncertainty stated by the source.
Assays:
[1] = mn = molality of the nth substance listed, in mol/kg; conditions: 298.15 K, 101.3 kPa, Liquid
[2] = osmotic coefficient (dimensionless); mn = molality of the nth substance listed, in mol/kg; conditions: 298.15 K, Liquid, isopiestic method

[Cl-].[Cl-].[Zn+2] [zinc chloride] + CCO
Conditions	mass density [kg/m3]	osmotic coefficient
[1], m1 = 0.0018	785.28 ± 0.61	–
[1], m1 = 0.0035	785.46 ± 0.61	–
[1], m1 = 0.0053	785.67 ± 0.61	–
[1], m1 = 0.0087	786.03 ± 0.61	–
[1], m1 = 0.0106	786.24 ± 0.61	–
[1], m1 = 0.0127	786.47 ± 0.61	–
[1], m1 = 0.0167	786.9 ± 0.6	–
[1], m1 = 0.0185	787.09 ± 0.61	–
[1], m1 = 0.0227	787.56 ± 0.61	–
[1], m1 = 0.033	788.63 ± 0.6	–
[1], m1 = 0.0394	789.3 ± 0.6	–
[1], m1 = 0.0471	790.1 ± 0.6	–
[1], m1 = 0.051	790.5 ± 0.6	–
[1], m1 = 0.0551	790.94 ± 0.6	–
[1], m1 = 0.0624	791.69 ± 0.6	–
[1], m1 = 0.0691	792.36 ± 0.6	–
[1], m1 = 0.0734	792.8 ± 0.6	–
[1], m1 = 0.0781	793.28 ± 0.59	–
[1], m1 = 0.0825	793.72 ± 0.59	–
[1], m1 = 0.0921	794.68 ± 0.59	–
[1], m1 = 0.1035	795.81 ± 0.59	–
[1], m1 = 0.1713	802.4 ± 0.58	–
[1], m1 = 0.2776	812.39 ± 0.56	–
[1], m1 = 0.4056	824.04 ± 0.54	–
[1], m1 = 0.5788	839.34 ± 0.51	–
[1], m1 = 0.6875	848.7 ± 0.5	–
[1], m1 = 0.8432	861.8 ± 0.48	–
[1], m1 = 1.086	881.52 ± 0.45	–
[1], m1 = 1.132	885.11 ± 0.45	–
[1], m1 = 1.312	899.05 ± 0.43	–
[1], m1 = 1.346	901.59 ± 0.43	–
[1], m1 = 1.542	916.09 ± 0.41	–
[1], m1 = 1.689	926.54 ± 0.41	–
[1], m1 = 1.883	940 ± 0.4	–
[1], m1 = 2.041	950.61 ± 0.39	–
[1], m1 = 2.204	961.4 ± 0.4	–
[1], m1 = 2.402	974.29 ± 0.39	–
[1], m1 = 2.541	983.29 ± 0.39	–
[1], m1 = 2.776	998.74 ± 0.39	–
[2], m1 = 0.219	–	0.359 ± 0.032
[2], m1 = 0.4046	–	0.332 ± 0.033
[2], m1 = 0.4882	–	0.352 ± 0.032
[2], m1 = 0.5854	–	0.358 ± 0.032
[2], m1 = 0.7111	–	0.36 ± 0.032
[2], m1 = 0.7875	–	0.379 ± 0.031
[2], m1 = 0.8946	–	0.383 ± 0.031
[2], m1 = 1.057	–	0.405 ± 0.03
[2], m1 = 1.087	–	0.403 ± 0.03
[2], m1 = 1.205	–	0.416 ± 0.029
[2], m1 = 1.227	–	0.422 ± 0.029
[2], m1 = 1.353	–	0.441 ± 0.028
[2], m1 = 1.446	–	0.443 ± 0.028
[2], m1 = 1.567	–	0.458 ± 0.027
[2], m1 = 1.666	–	0.472 ± 0.026
[2], m1 = 1.765	–	0.482 ± 0.026
[2], m1 = 1.889	–	0.494 ± 0.025
[2], m1 = 1.973	–	0.506 ± 0.025
[2], m1 = 2.115	–	0.519 ± 0.024
[2], m1 = 2.233	–	0.542 ± 0.023
[2], m1 = 2.408	–	0.56 ± 0.022
[2], m1 = 2.455	–	0.571 ± 0.021
[2], m1 = 2.61	–	0.594 ± 0.02
[2], m1 = 2.712	–	0.616 ± 0.019

Reference: the NIST ThermoML archive (doi:10.1016/j.fluid.2004.11.022)
